{"source": "patent US10287328B2", "about": "“Treatment of diabetes, toll-like receptor 4 modulators and methods for using the same” (KeMyth Biotech Co., Ltd., priority 2016, dated 2019)", "key": {"[1]": {"test": "Body weight in C57BL/KsJ-db/db diabetic mice", "format": "in vivo", "settings": "2 mg/kg/3 days i.p. for 30 days, compared with control group, after week 2", "method": "Male C57BL/KsJ-db/db mice (diabetic deficiency knockout mice) at 5 weeks of age (23 g) were fed a pelletized commercial chow diet for acclimation from the arrival for 2 weeks. […]. They were given free access to food and distilled water, and the food consumption and body weight gain were measured daily and weekly, respectively. […]; and (2) group 2 served as diabetic mice administered C70PLY4 (2 mg/kg/3 days) in aqueous suspension i.p. for 30 days (C70PLY4). […] The blood was centrifuged at 1000 g for 15 min at 4° C., and plasma and erythrocyte were separated. The livers and adipose tissues were removed, washed, weighted, and frozen at −70° C. until analyzed."}, "[2]": {"test_system": "sICAM-1, sVCAM-1, sE-selectin", "test": "Serum sICAM-1, sVCAM-1 and sE-selectin (ELISA) in HFD-induced type 2 diabetic rats", "format": "in vivo, Sprague-Dawley rats", "settings": "STZ-injected HFD-fed rats, compared to STZ+vehicle", "method": "The Sprague-Dawley rats were allocated to two dietary regimens by feeding either normal or HFD ad libitum, for the initial period of 2 weeks. After 2 weeks of dietary manipulation, the group of rats fed HFD were injected intraperitoneally (i.p.) with a low dose of STZ (35 mg/kg b.w.), while the respective control rats were given vehicle citrate buffer (pH 4.5) in a dose volume of 1 mL/kg, i.p. Seven days after STZ injection, rats were screened for blood glucose levels. Overnight fasted (10-12 hours) animals were given glucose (3 g/kg b.w.) by gastric intubation. After 2 hours of oral administration, blood samples were taken from lateral tail vein, left to coagulate and centrifuged; then serum glucose concentration was measured. Rats having serum glucose ≥200 mg/dL after 2 hours of glucose intake were considered diabetic and selected for further pharmacological studies. The rats were allowed to continue to feed on their respective diets until the end of the study (16).\nThe experimental animals were divided into three groups, each group comprising six rats designated as follows: (1) group 1 served as control rats (non-DM control); (2) group 2 served as diabetic control rats (STZ+vehicle); and (3) group 3 served as diabetic treatment rats administered with C70PLY4 (2 mg/kg/3 days) in aqueous suspension i.p. for 30 days (STZ+C70PLY4). By the end of the experiment, animals were sacrificed and blood samples, muscle and liver were obtained.\nThe levels of insulin, sICAM-1, sVCAM-1, and E-selectin in serum were determined by using sandwich ELISA (R&D) according to manufacturer's protocols."}, "[3]": {"test_system": "PMNs isolated from TLR4(−/−) mice C3H/HeJ", "test": "LPS-induced PMN transendothelial migration, PMNs from TLR4(-/-) C3H/HeJ mice", "format": "cell-based", "settings": "LPS 1 μg/ml, HUVEC monolayer Transwell", "method": "To obtain mice neutrophils from TLR4-deficient [TLR4(−/−)] C3H/HeJ mice and wild type C3H/HeN mice, inflammation was induced by 0.1 ml of uric acid solution into the peritoneal cavity of the mouse. The uric acid solution (noncrystalline form) was prepared by mixing with saline (10% [wt/vol]) and sonicated for 10 min. Immediately before inoculation, the milky white precipitated uric acid solution was shaken vigorously. Peritoneal exudate cells were harvested 4, 18, or 24 h after injection by two lavages of the peritoneal cavity with 5 ml of cold phosphate-buffered saline (PBS; total volume, 10 ml). Uric acid-induced peritoneal cells (UAPMN) were washed by centrifugation at 200×g for 10 min at 4° C. […] The numbers and populations of peritoneal exudate cells were determined by staining the nuclei with Turk reagent and by cytospin centrifugation followed by May-Grünwald-Giemsa staining, respectively. […] Viability of the isolated neutrophils exceeded 95% as determined by trypan blue exclusion. […]\nNeutrophils from human were isolated blood that was drawn in a syringe containing preservative-free heparin (20 U/ml final), and mixed with an equal volume of PBS containing 3% dextran and then incubated for 20 min at room temperature. […] The viability of the isolated neutrophils exceeded 95%, as determined by Trypan blue exclusion. […]"}, "[4]": {"test_system": "caspase-3 activity in HUVECs", "format": "cell-based, human", "settings": "compared to control cells", "method": "Cell apoptosis was detected by using commercial terminal deoxynucleotidyl transferase-dUTP nick end labeling (TUNEL) and caspase-3 activity kits, i.e., Apo-BrdU in Situ DNA Fragmentation Assay Kit (BioVision) and NucView™ 488 Caspase-3 Enzyme Substrate (Biotium). In brief, after incubation with M199 media in the presence or absence of […] various PLY peptides, at 37° C., 5% CO2 for 1 hour, HUVECs were washed with PBS and fixed with fixation buffer on ice for 20 min. Cells were then soaked in 70% alcohol for 1 hr. After 2 times of wash by washing buffer, cells were incubated in DNA labeling solution for 60 min at 37° C. Cells were then treated with rinse buffer and incubated with antibody buffer for 30 min at room temperature. The cell nuclei were stained with propidium iodide for 30 min. Samples were observed by fluorescent microscopeand photographed charge-coupled device (CCD) camera.\nAs to caspase-3 activity assay, after variant peptide treatments, HUVECs were washed by PBS. Cells were then reacted with Caspase-3 Enzyme Substrate 1 mM for 30 min at room temperature. Cells were then observed by fluorescent microscopeand photographed CCD camera."}}}
{"sequence": "QDLTAHFTTSIPLKGNVRNLSVKIRECTGLAWEWWRTVYEKTDLPLVRKRTISIWGTTLYPQVEDKVEND [C70PLY4]", "values": [{"measurement": "body weight", "setting": "[1]", "value": "significantly decreases"}, {"measurement": "serum sE-selectin level", "setting": "[2]", "value": "decreased"}, {"measurement": "serum sICAM-1 level", "setting": "[2]", "value": "decreased sICAM-1"}, {"measurement": "serum sVCAM-1 level", "setting": "[2]", "value": "decreased"}, {"measurement": "PMNs migration, TLR4(−/−) mice model (FIG. 10)", "setting": "[3]", "value": "this phenomenon did not occur"}, {"measurement": "apoptotic potential, caspase-3 activity assay", "setting": "[4]", "value": "no apoptotic potential"}]}
